Source: patent US8304453B2, “Composition comprising at least one alkanolamide to inhibit migration of langerhans cells and uses therof” (Laboratoires Expanscience, priority 2001, dated 2012)

Tests used:
[1] = tested on: dendritic cells generated in vitro from CD34+ precursors derived from blood from the umbilical cord; test: Migration of dendritic cells generated in vitro from CD34+ precursors of umbilical cord blood, activated by hapten BB; assay type: cell-based, human; settings: for Percentage of dendritic cells generated in vitro that migrated: BB + AK100 1 μM; for inhibition at 1 µM: Homo sapiens, Dendritic cell
Method: Mononucleated cells were obtained from blood from the umbilical cord of healthy donors by centrifuging on Ficoll. The CD34+ cells were then purified by immunoselection using a specific antibody and magnetic balls (Miltenyi Biotech, Germany). The CD34+ cells were cultivated in the presence of GM-CSF (100 ng/ml), TNF-α (2.5 ng/ml) in RPMI to which 10% calf foetus serum was added for 5 days. TGF-β1, a factor that encourages differentiation of cells to the Langerhans cells […], was added on the 5th day of culture.
Cells were treated by hapten BB on the 7th day (Brandowski base, 1.17 μg/ml) for 24 h, and were then subjected to the migration test.
The results represent the percentage of cells that migrated in the presence of the different tested products. The percentage is calculated by taking the ratio of the number of cells recovered in the lower compartment of the migration chamber, to the number of cells subjected to migration. AK100 inhibits the migration of dendritic cells by 51 and 25% in experiments 1 and 2 respectively.

[2] = tested on: Langerhans cells freshly isolated from human skin; test: Migration of Langerhans cells freshly isolated from human skin, activated by DNSB (two-compartment Matrigel chamber); assay type: cell-based
Method: Epidermal cell suspensions were obtained by enzymatic treatment (0.05% trypsine for 18 h at +4° C.) of fragments of normal human skin taken from plastic surgery. The suspensions obtained contain an average of 2 to 4% of LC. Obtaining suspensions containing an average of 70% of LC is based on the principle of centrifuging on density gradient (Lymphoprep™) and elimination of keratinocytes.
The basic medium chosen for the entire study was PRMI 1640 (Gibco BRL, France). The AK100 molecule supplied by Pharmascience, with a concentration of 10^−2 M in solution in DMSO (Dimethyl Sulfoxide) was diluted in RPMI-1640 and tested at 1 μM.
The sensitising agent was DNSB (Sigma Aldrich), a soluble form of DNCB (dinitro-chloro-benzene) solubilised in RPMI-BSA and used at a concentration of 50 μM.
A culture chamber system with two compartments (Falcon, Becton Dickinson, France) was used. The upper compartment is separated from the lower compartment by a membrane with 8 μm porosity, on which 50 μg/cm^2 Matrigel was deposited. […] After 18 h incubation at 37° C., the number of living cells that passed through the Matrigel and that are located in the lower compartment is counted under a microscope (the LCs are easily identifiable by their dendritic form). […]

dendritic cells [3] = test: Migration of dendritic cells to draining ganglions in mouse sensitised by FITC hapten (AK100 ± LU105, Example 4); assay type: in vivo
Text: FITC (Fluoresceine isothiocyanate, Sigma, St Louis, Mo.) was extemporaneously diluted in an acetone mix (dibutylphthalate (1:1)).
Alkanolamide AK100 and LU105 (LU 105 is an MMP inhibitor, corresponding to a peptide extract of white lupin marketed by the Expanscience Company under the brand name Actimp (193®) were supplied by “Laboratoires Expanscience” and formulated alone or association with each other in an inert vehicle compatible with a topical application (alkanolamide AK100 (0.1%)± LU105 (2%)). The different formulations were applied on the ears of mice twice per day for 4 consecutive days. 1.5% of FITC was applied on both ears (one treated and the other not treated (Control)) three hours after the last application.
The effect of the two molecules was evaluated in vivo in the mouse. 1.5% FITC (2×5 μl) was applied on the skin of both ears. […] The cells were then centrifuged for 10 minutes at 600×g (m×s^−2) on a metrizamide gradient (14.5% in RPMI 1640; 7.5% SVF) The interface cells were retrieved, rinsed and then marked with an anti-CDS86 PE-conjugated, biot-MHC CLII mAbs AC plus streptavidine-Cya (PharMingen) and analysed by flux cytometry. Only the FITC^+, PE^+ and Cya^+ cells are counted since they represent the population of cells that migrated from the skin to GLs following the application of hapten.

dendritic cells [4] = test: Migration of dendritic cells to draining ganglions in mouse sensitised by FITC hapten (AK100 ± OX100, Example 5); assay type: in vivo; settings: for Migration inhibition in %: FITC
Method: FITC (Fluoresceine isothiocyanate, Sigma, St. Louis, Mo.) was diluted extemporaneously in a mixture of acetone and dibutylphthalate (1:1).
Alkanolamide AK100 and OX100 (described above) were supplied by “Laboratoires Expanscience” and formulated alone or in association in an inert vehicle compatible with a topical application [AK100 (0.05%)±OX100 (0.05%)]. The different formulations were applied on the ears of mice twice per day for 4 consecutive days. Three hours after the last application, 1.5% of FITC was applied on both ears (one treated and the other not treated (Control)).
The effect of the two molecules was evaluated in vivo in the mouse. 1.5% FITC (2×5 μl) was applied on the skin of both ears. 24 h later, the mice were sacrificed and a cellular suspension was prepared from auricular and cervical ganglions (draining ganglions, hereinafter denoted GL) or from the poplital ganglions (non-draining ganglions, negative control). The tissues were cut and cells separated by filtration (100 μm filter, Falcon; Becton Dickinson) and then washed. The cells were then centrifuged for 10 minutes at 600×g (m×s^−2) on a metrizamide gradient (14.5% in RPMI 1640; 7.5% SVF). The interface cells were retrieved, rinsed and then marked with an anti-CDS86 PE-conjugated, biot-MHC CLII mAbs AC plus streptavidine-Cya (PharMingen) and analysed by flux cytometry. Only the FITC^+, PE^+ and Cya^+ cells are counted since they represent the population of cells that migrated from the skin to GLs following the application of hapten.

[5] = mice sensitised by FITC hapten, topical

Row | Structure (SMILES) | Inhibition of migration of dendritic cells activated by hapten BB ([1]; 1 μM) | Percentage of dendritic cells generated in vitro that migrated ([1]; Experiment 1, BB alone 17) [%] | Percentage of dendritic cells generated in vitro that migrated ([1]; Experiment 2, BB alone 24) [%] | inhibition at 1 µM ([1]; Experiment 1, 1 μM) [%] | inhibition at 1 µM ([1]; Experiment 2, 1 μM) [%] | Inhibition of migration of LCs induced by DNSB ([2]; 1 μM) | LC migration index ([2]; DNSB 50 μM + AK100 1 μM, 18 h, control cells set to 1, DNSB alone 2.55) | Migration inhibition in % (dendritic cells [3]; 0.1% topical on ears twice per day for 4 days, FITC) [%] | Inhibition of migration of DCs to LGs (dendritic cells [3]; [5]) | Migration inhibition in % (dendritic cells [4]; AK100 0.05% topical on ears twice per day for 4 days) [%] | Inhibition of migration of DCs to LGs (dendritic cells [4]; [5]) | Migration inhibition in % (dendritic cells [4]; OX100 0.05% topical on ears twice per day for 4 days) [%]
1 | CCCCCCCCCCCC(=O)NC(C)(C)CO [AK100] | significantly inhibits | 8.4 | 18 | 51 | 25 | significantly inhibits | 1.11 | 30 | significantly inhibits | 15 | significantly inhibits | –
2 | CCCCCCCCCCCC1=NC(C)(C)CO1 [OX100, 2-undecyl-4,4-dimethyl-1,3-oxazoline] | – | – | – | – | – | – | – | – | – | – | – | 15
